# Results published in article PMC2063170, “A phase I clinical and pharmacokinetic study of the new topoisomerase inhibitor GI147211 given as a 72-h continuous infusion” (British Journal of Cancer, 1998).
# Where “and” joins values, the source holds several entries; their conditions need not be identical. Equal values may be shown once.
# Key:
# [1] = tested on: neutrophils and platelets; experiment: Pharmacodynamics: sigmoid Emax (Hill) fit of % decrease in neutrophils or platelets vs lactone Css; type: in vivo, patients; details: sigmoid Emax model
# Source text: Brrtish Joumal of Cancer(1998) 78(10). 1329-1336 @ 1998 Cancer Research Campaign A phase I clinical and pharmacokinetic study of the new topoisomerase inhibitor G1147211 given as a 72-h continuous infusion L Paz-Aresl*, R Kunkal 2, D DeMarial-3, J Cassidy' 4, M Alden3, P Beranek2, S Kaye', D Littlefield2, D Reilly3, S Depee2, P Wissel2, C Twelves' and P O'Dwyer3 CRC Department of Medical Oncology. University of Glasgow. Westem Infirmary Hospital. Glasgow Gll 6NT. UK; 2Glaxo Wellcome Research. Five Moore Drive. Research Triangle Park. NC 27709. USA; 'Fox Chase Cancer Center. 7701 Burholme Avenue. Philadelphia, PA 19111. USA: 4Thomas Jefferson University. Kimmel Cancer Institute. Bluemle Life Sciences Building. 233 S. 10th Street. Suite 502. Philadelphia. PA 19107. […] This study was designed to determine the maximum tolerated dose of Gl147211 as a 72-h infusion and to describe its pharmacokinetics and pharmacodynamics on this schedule. In a single-arm, rising-dose study in patients with advanced cancer, eight cohorts of three or more patients received 72-h infusions of G1147211 at doses ranging from 0.25 to 2.5 mg m-2 day-'. […] Whole-blood G1147211 lactone, total blood and total concentrations were measured during and over the 12 h following the infusion. […] Extensive phase 11 evaluation of this compound and further phase I trials evaluating more prolonged infusions are ongoing. […]
# in vitro models = tested on: in vitro models; design: method as in Slichenmyer et al. 1993: Emerson et al. 1995; details: ref Slichenmyer et al. 1993: Emerson et al. 1995; cited from earlier work
# [2] = tested on: colon (HT29 and SW480), breast (MX 1), ovarian (SKOV3), prostate (PC3) and lung (H460) carcinoma xenografts; design: method as in Emerson et al. 1986. 1993. 1994. 1995; details: nude mice; ref Emerson et al. 1986. 1993. 1994. 1995; cited from earlier work
smiles,measurement,setting,value
"CC[C@@]1(O)C(=O)OCc2c1cc1n(c2=O)Cc2c-1nc1cc3c(cc1c2CN1CCN(C)CC1)OCCO3 [GI147211, 7-4 methyl piperazinomethilene)-10.1 1-ethylenedioxy - 20-(S camptothecin]","EC50, half-maximal concentration (lactone Css) for % decrease in neutrophils (ANC)",[1],0.75 ng/mL and 0.750 ng/mL
same,"EC50, half-maximal concentration (lactone Css) for % decrease in platelets",[1],1.141 ng/mL
same,Activity relative to topotecan,in vitro models,2-5 times more active
same,Anti-tumour activity in xenografts,[2],confirmed the anti-tumour actixitv
